In patent US8541588B2, “Sulfonamide derivatives” (Pfizer Limited, priority 2009, dated 2013):
pIC50: −log10 of the molar value. Blank lines part the entries; values can stand above or below the molecule they belong to.

Target: T1, Nav1.7 (or SCN9A) channel; HEK cells stably transfected with hSCN9A (Homo sapiens, UniProt Q15858)
T1 construct: expressed in transfected cells
Experiment: Nav1.7 block, PatchXpress 7000 automated whole-cell voltage clamp, estimated IC50 (EIC50)
Assay type: cell-based
Details: estimated IC50; hSCN9A HEK cells, PatchXpress platform; Examples 815-1040

T1 sequence (Q15858 whole entry): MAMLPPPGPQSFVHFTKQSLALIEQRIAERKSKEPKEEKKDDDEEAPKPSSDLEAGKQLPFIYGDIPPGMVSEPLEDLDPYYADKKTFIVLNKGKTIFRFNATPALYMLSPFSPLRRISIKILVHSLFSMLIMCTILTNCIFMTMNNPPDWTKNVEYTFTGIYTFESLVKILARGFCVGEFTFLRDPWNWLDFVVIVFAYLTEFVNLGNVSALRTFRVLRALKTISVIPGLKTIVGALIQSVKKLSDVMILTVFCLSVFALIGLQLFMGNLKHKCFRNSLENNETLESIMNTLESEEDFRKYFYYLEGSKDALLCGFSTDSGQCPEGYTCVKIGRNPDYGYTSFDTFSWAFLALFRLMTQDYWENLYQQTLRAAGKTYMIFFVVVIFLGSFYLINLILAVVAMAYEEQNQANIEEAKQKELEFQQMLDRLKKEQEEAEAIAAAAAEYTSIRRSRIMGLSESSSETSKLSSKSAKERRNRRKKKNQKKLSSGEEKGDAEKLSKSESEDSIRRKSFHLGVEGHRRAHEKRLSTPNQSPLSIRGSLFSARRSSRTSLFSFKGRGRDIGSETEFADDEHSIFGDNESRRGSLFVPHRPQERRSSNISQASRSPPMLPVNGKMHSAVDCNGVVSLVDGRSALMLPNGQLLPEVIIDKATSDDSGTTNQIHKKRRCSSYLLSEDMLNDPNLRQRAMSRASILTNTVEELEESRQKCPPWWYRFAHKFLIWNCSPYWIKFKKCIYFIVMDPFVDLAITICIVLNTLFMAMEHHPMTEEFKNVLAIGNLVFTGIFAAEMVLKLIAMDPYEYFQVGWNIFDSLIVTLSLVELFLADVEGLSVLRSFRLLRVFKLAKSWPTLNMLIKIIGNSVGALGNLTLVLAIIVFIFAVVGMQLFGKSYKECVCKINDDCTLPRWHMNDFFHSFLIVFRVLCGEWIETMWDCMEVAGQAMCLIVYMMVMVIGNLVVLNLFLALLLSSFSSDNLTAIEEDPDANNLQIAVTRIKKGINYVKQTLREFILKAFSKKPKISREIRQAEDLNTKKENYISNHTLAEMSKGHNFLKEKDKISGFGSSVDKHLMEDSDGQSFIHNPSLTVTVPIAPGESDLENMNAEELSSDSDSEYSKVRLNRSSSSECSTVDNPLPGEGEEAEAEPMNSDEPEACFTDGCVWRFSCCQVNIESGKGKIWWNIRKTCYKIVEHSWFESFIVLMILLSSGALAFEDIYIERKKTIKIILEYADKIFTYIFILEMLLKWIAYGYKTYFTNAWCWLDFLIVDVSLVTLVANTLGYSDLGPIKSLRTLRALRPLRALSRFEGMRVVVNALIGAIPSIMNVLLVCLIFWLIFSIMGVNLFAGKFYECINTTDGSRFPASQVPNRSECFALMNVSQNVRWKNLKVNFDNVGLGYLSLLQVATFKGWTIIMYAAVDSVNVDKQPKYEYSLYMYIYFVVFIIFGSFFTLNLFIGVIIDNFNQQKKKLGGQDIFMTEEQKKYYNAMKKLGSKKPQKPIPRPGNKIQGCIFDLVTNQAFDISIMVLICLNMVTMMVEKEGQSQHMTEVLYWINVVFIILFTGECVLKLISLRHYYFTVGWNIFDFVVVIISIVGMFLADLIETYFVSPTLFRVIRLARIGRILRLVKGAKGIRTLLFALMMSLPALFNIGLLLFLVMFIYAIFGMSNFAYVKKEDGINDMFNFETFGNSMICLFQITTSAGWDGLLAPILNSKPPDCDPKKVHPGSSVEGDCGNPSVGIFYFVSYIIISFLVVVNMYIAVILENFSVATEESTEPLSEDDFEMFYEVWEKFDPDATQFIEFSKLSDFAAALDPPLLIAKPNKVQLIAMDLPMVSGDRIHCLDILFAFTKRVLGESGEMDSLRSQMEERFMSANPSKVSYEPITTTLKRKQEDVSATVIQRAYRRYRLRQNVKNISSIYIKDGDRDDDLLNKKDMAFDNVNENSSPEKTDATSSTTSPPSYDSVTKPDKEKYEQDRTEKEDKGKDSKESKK

SMILES: O=S(=O)(Nc1nncs1)c1cc(Cl)c(Oc2ccc(Cl)cc2-c2ccnnc2)cc1F [Example 843, 5-chloro-4-(4-chloro-2-pyridazin-4-ylphenoxy)-2-fluoro-N-1,3,4-thiadiazol-2-ylbenzenesulfonamide]
pIC50: 7.47

SMILES: O=S(=O)(Nc1cscn1)c1cc(Cl)c(Oc2ccc(Cl)cc2-c2ccnnc2)cc1F [Example 845, 5-chloro-4-(4-chloro-2-pyridazin-4-ylphenoxy)-2-fluoro-N-1,3-thiazol-4-ylbenzenesulfonamide]
pIC50: 7.39

SMILES: O=S(=O)(Nc1ccc(F)cn1)c1cc(F)c(Oc2ccc(Cl)cc2-c2ccnnc2)cc1F [Example 846, 4-(4-chloro-2-pyridazin-4-ylphenoxy)-2,5-difluoro-N-(5-fluoropyridin-2-yl)benzenesulfonamide]
pIC50: 6.64

SMILES: O=S(=O)(Nc1ccncn1)c1ccc(Oc2ccc(Cl)cc2-c2ccnnc2)c(Cl)c1 [Example 847, 3-chloro-4-(4-chloro-2-pyridazin-4-ylphenoxy)-N-pyrimidin-4-ylbenzenesulfonamide]
pIC50: 6.89

SMILES: CCN1CC(n2nccc2-c2cc(F)ccc2Oc2cc(F)c(S(=O)(=O)Nc3ncns3)cc2Cl)C1 [Example 848, 5-chloro-4-{2-[1-(1-ethylazetidin-3-yl)-1H-pyrazol-5-yl]-4-fluorophenoxy}-2-fluoro-N-1,2,4-thiadiazol-5-ylbenzenesulfonamide]
pIC50: 8.29

SMILES: Nc1nccc(-c2cc(Cl)ccc2Oc2cc(F)c(S(=O)(=O)Nc3ncns3)cc2F)n1 [Example 849, 4-[2-(2-aminopyrimidin-4-yl)-4-chlorophenoxy]-2,5-difluoro-N-1,2,4-thiadiazol-5-ylbenzenesulfonamide]
pIC50: 6.92

SMILES: N#Cc1ccc(Oc2cc(F)c(S(=O)(=O)Nc3ncns3)cc2Cl)c(-c2cn[nH]c2)c1 [Example 850, 5-chloro-4-[4-cyano-2-(1H-pyrazol-4-yl)phenoxy]-2-fluoro-N-1,2,4-thiadiazol-5-ylbenzenesulfonamide]
pIC50: 8.49

SMILES: O=C(c1cccc(-c2cc(Cl)ccc2Oc2cc(F)c(S(=O)(=O)Nc3cscn3)cc2Cl)c1)N1CCC1 [Example 856, 4-{[3′-(azetidin-1-ylcarbonyl)-5-chlorobiphenyl-2-yl]oxy}-5-chloro-2-fluoro-N-1,3-thiazol-4-ylbenzenesulfonamide]
pIC50: 7.66

SMILES: O=C(c1cccc(-c2cc(Cl)ccc2Oc2cc(F)c(S(=O)(=O)Nc3nncs3)cc2Cl)c1)N1CCC1 [Example 857, 4-{[3′-(azetidin-1-ylcarbonyl)-5-chlorobiphenyl-2-yl]oxy}-5-chloro-2-fluoro-N-1,3,4-thiadiazol-2-ylbenzenesulfonamide]
pIC50: 7.85

SMILES: O=C(c1cccc(-c2cc(Cl)ccc2Oc2cc(F)c(S(=O)(=O)Nc3ncns3)cc2Cl)n1)N1CCC1 [Example 859, 4-{2-[6-(azetidin-1-ylcarbonyl)pyridin-2-yl]-4-chlorophenoxy}-5-chloro-2-fluoro-N-1,2,4-thiadiazol-5-ylbenzenesulfonamide]
pIC50: 8.36

SMILES: CN(C)c1n[nH]cc1-c1cc(Cl)ccc1Oc1cc(F)c(S(=O)(=O)Nc2cscn2)cc1Cl [Example 860, 5-chloro-4-{4-chloro-2-[3-(dimethylamino)-1H-pyrazol-4-yl]phenoxy}-2-fluoro-N-1,3-thiazol-4-ylbenzenesulfonamide]
pIC50: 6.77

SMILES: CC(C)N1CC(n2nccc2-c2cc(Cl)ccc2Oc2ccc(S(=O)(=O)Nc3cscn3)cc2C#N)C1 [Example 861, 4-{4-chloro-2-[1-(1-isopropylazetidin-3-yl)-1H-pyrazol-5-yl]phenoxy}-3-cyano-N-1,3-thiazol-4-ylbenzenesulfonamide]
pIC50: 7.85

SMILES: Cn1nccc1-c1cc(Cl)ccc1Oc1ccc(S(=O)(=O)Nc2cccnn2)cc1Cl [Example 862, 3-chloro-4-[4-chloro-2-(1-methyl-1H-pyrazol-5-yl)phenoxy]-N-pyridazin-3-ylbenzenesulfonamide]
pIC50: 6.62

SMILES: Cc1[nH]ncc1-c1cc(Cl)c(F)cc1Oc1ccc(S(=O)(=O)Nc2ncns2)cc1C#N [Example 863, 4-[4-chloro-5-fluoro-2-(5-methyl-1H-pyrazol-4-yl)phenoxy]-3-cyano-N-1,2,4-thiadiazol-5-ylbenzenesulfonamide]
pIC50: 8.51

SMILES: O=S1(=O)CCC(n2nccc2-c2cc(Cl)ccc2Oc2cc(F)c(S(=O)(=O)Nc3ncns3)cc2F)C1 (stereo not shown) [Example 866, 4-{4-chloro-2-[1-(1,1-dioxidotetrahydro-3-thienyl)-1H-pyrazol-5-yl]phenoxy}-2,5-difluoro-N-1,2,4-thiadiazol-5-ylbenzenesulfonamide]
pIC50: 7.85

SMILES: O=S(=O)(Nc1cccnn1)c1ccc(Oc2ccc(Cl)cc2-c2ccnnc2)c(Cl)c1 [Example 869, 3-chloro-4-(4-chloro-2-pyridazin-4-ylphenoxy)-N-pyridazin-3-ylbenzenesulfonamide]
pIC50: 6.27

SMILES: CN(C)c1n[nH]cc1-c1cc(Cl)ccc1Oc1cc(F)c(S(=O)(=O)Nc2nncs2)cc1Cl [Example 870, 5-chloro-4-{4-chloro-2-[3-(dimethylamino)-1H-pyrazol-4-yl]phenoxy}-2-fluoro-N-1,3,4-thiadiazol-2-ylbenzenesulfonamide]
pIC50: 6.85

SMILES: Cc1nsc(NS(=O)(=O)c2cc(Cl)c(Oc3ccc(C(F)(F)F)cc3-c3ccnnc3)cc2F)n1 [Example 871, 5-chloro-2-fluoro-N-(3-methyl-1,2,4-thiadiazol-5-yl)-4-[2-pyridazin-4-yl-4-(trifluoromethyl)phenoxy]benzenesulfonamide]
pIC50: 7.60

SMILES: Cc1nsc(NS(=O)(=O)c2cc(Cl)c(Oc3ccc(Cl)cc3-c3c[nH]nc3N)cc2F)n1 [Example 872, 4-[2-(3-amino-1H-pyrazol-4-yl)-4-chlorophenoxy]-5-chloro-2-fluoro-N-(3-methyl-1,2,4-thiadiazol-5-yl)benzenesulfonamide]
pIC50: 7.92

SMILES: O=S(=O)(Nc1nncs1)c1cc(F)c(Oc2ccc(Cl)cc2-c2cc(N3CCOCC3)ncn2)cc1F [Example 873, 4-[4-chloro-2-(6-morpholin-4-ylpyrimidin-4-yl)phenoxy]-2,5-difluoro-N-1,3,4-thiadiazol-2-ylbenzenesulfonamide]
pIC50: 5.41

SMILES: N#Cc1cc(S(=O)(=O)Nc2ncns2)ccc1Oc1ccc(OC(F)(F)F)cc1-c1ccnnc1 [Example 878, 3-cyano-4-[2-pyridazin-4-yl-4-(trifluoromethoxy)phenoxy]-N-1,2,4-thiadiazol-5-ylbenzenesulfonamide]
pIC50: 8.24

Continued, values first:

pIC50: 8.80
SMILES: N#Cc1cc(S(=O)(=O)Nc2ncns2)ccc1Oc1ccc(Cl)cc1-c1cccc(CN2CCC2)c1 [Example 852, 4-{[3′-(azetidin-1-ylmethyl)-5-chlorobiphenyl-2-yl]oxy}-3-cyano-N-1,2,4-thiadiazol-5-ylbenzenesulfonamide]

pIC50: 6.13
SMILES: N#Cc1ccc(-c2cc(Cl)ccc2Oc2ccc(S(=O)(=O)Nc3ncns3)cc2C#N)nc1 [Example 853, 4-[4-chloro-2-(5-cyanopyridin-2-yl)phenoxy]-3-cyano-N-1,2,4-thiadiazol-5-ylbenzenesulfonamide]

pIC50: 8.19
SMILES: N#Cc1cc(S(=O)(=O)Nc2ncns2)ccc1Oc1ccc(Cl)cc1-c1cccc(C(=O)N2CCC2)c1 [Example 854, 4-{[3′-(azetidin-1-ylcarbonyl)-5-chlorobiphenyl-2-yl]oxy}-3-cyano-N-1,2,4-thiadiazol-5-ylbenzenesulfonamide]

pIC50: 8.38
SMILES: O=C(c1cccc(-c2cc(Cl)ccc2Oc2cc(F)c(S(=O)(=O)Nc3ncns3)cc2F)c1)N1CCC1 [Example 855, 4-{[3′-(azetidin-1-ylcarbonyl)-5-chlorobiphenyl-2-yl]oxy}-2,5-difluoro-N-1,2,4-thiadiazol-5-ylbenzenesulfonamide]

pIC50: 7.77
SMILES: O=C(c1cccc(-c2cc(Cl)ccc2Oc2ccc(S(=O)(=O)Nc3ccncn3)cc2Cl)c1)N1CCC1 [Example 858, 4-{[3′-(azetidin-1-ylcarbonyl)-5-chlorobiphenyl-2-yl]oxy}-3-chloro-N-pyrimidin-4-ylbenzenesulfonamide]

pIC50: 8.36
SMILES: N#Cc1cc(S(=O)(=O)Nc2ncns2)ccc1Oc1ccc(Cl)cc1-c1cccc(C(=O)NC2CC2)c1 [Example 864, 5′-chloro-2′-{2-cyano-4-[(1,2,4-thiadiazol-5-ylamino)sulfonyl]phenoxy}-N-cyclopropylbiphenyl-3-carboxamide]

pIC50: 8.36
SMILES: Cc1[nH]ncc1-c1cc(Cl)ccc1Oc1ccc(S(=O)(=O)Nc2ncns2)cc1C#N [Example 865, 4-[4-chloro-2-(5-methyl-1H-pyrazol-4-yl)phenoxy]-3-cyano-N-1,2,4-thiadiazol-5-ylbenzenesulfonamide]

pIC50: 8.85
SMILES: N#Cc1cc(S(=O)(=O)Nc2ncns2)ccc1Oc1ccc(Cl)cc1-c1cccc(CN2CC(CO)(CO)C2)c1 [Example 867, 4-[(3′-{[3,3-bis(hydroxymethyl)azetidin-1-yl]methyl}-5-chlorobiphenyl-2-yl)oxy]-3-cyano-N-1,2,4-thiadiazol-5-ylbenzenesulfonamide]

pIC50: 7.82
SMILES: N#Cc1cc(S(=O)(=O)Nc2ncns2)ccc1Oc1ccc(Cl)cc1-c1ccnnc1 [Example 868, 4-(4-chloro-2-pyridazin-4-ylphenoxy)-3-cyano-N-1,2,4-thiadiazol-5-ylbenzenesulfonamide]

pIC50: 6.46
SMILES: N#Cc1cc(S(=O)(=O)Nc2ncns2)ccc1Oc1ccc(Cl)cc1-c1cccc(CN2CC(F)(F)C2)n1 [Example 874, 4-(4-chloro-2-{6-[(3,3-difluoroazetidin-1-yl)methyl]pyridin-2-yl}phenoxy)-3-cyano-N-1,2,4-thiadiazol-5-ylbenzenesulfonamide]

pIC50: 7.30
SMILES: N#Cc1cc(S(=O)(=O)Nc2ncns2)ccc1Oc1ccc(Cl)cc1-c1cc(N2CCNCC2)ncn1 [Example 875, 4-[4-chloro-2-(6-piperazin-1-ylpyrimidin-4-yl)phenoxy]-3-cyano-N-1,2,4-thiadiazol-5-ylbenzenesulfonamide]

IC50: >1000 nM
SMILES: N#Cc1cc(S(=O)(=O)Nc2nncs2)ccc1Oc1ccc(Cl)cc1-c1cc(N2CCOCC2)ncn1 [Example 876, 4-[4-chloro-2-(6-morpholin-4-ylpyrimidin-4-yl)phenoxy]-3-cyano-N-1,3,4-thiadiazol-2-ylbenzenesulfonamide]

pIC50: 6.33
SMILES: N#Cc1cc(S(=O)(=O)Nc2ncns2)ccc1Oc1ccc(Cl)cc1-c1cc(N2CCC2)ncn1 [Example 877, 4-[2-(6-azetidin-1-ylpyrimidin-4-yl)-4-chlorophenoxy]-3-cyano-N-1,2,4-thiadiazol-5-ylbenzenesulfonamide]
